Measured values from ChEMBL document CHEMBL1146890, “Arylaminoethyl carbamates as a novel series of potent and selective cathepsin S inhibitors” (Bioorg Med Chem Lett, 2006).

Key:
Type in all cases: ADME, organism-based
[1] = Oral bioavailability in Wistar rat at 10 mg/kg, po; details: in vivo
[2] = AUC in Wistar rat at 10 mg/kg, po; parameters: dose 10 mg/kg, route oral; details: plasma
[3] = Half life in Wistar rat at 3 mg/kg, iv; parameters: dose 3 mg/kg, route intravenous; details: in vivo
[4] = Half life in Wistar rat at 10 mg/kg, po; parameters: dose 10 mg/kg, route oral; details: in vivo
[5] = Cmax in Wistar rat at 10 mg/kg, po; parameters: dose 10 mg/kg, route oral; details: in vivo
[6] = Clearance in Wistar rat at 3 mg/kg, iv; parameters: dose 3 mg/kg, route intravenous; details: in vivo
[7] = Volume of distribution in Wistar rat at 3 mg/kg, iv; parameters: dose 3 mg/kg, route intravenous; details: in vivo, read-out: Vdss

Row | bioavailability [1] [%] | AUC [2] [ng·h/mL] | half-life [3] [min] | half-life [4] [min] | Cmax [5] [nM] | clearance [6] [mL/min/kg] | Vd [7] [L/kg] | Compound
1 | 23 | 733 | 82 | 62 | 513 | 52 | 3.1 | C[C@@H](CN1c2ccc(F)cc2CC1(C)C)NC(=O)O[C@@H](CC1CCCCC1)C(=O)N1CCOCC1
2 | 4 | 133 | 43 | 51 | 118 | 52 | 1.76 | C[C@@H](CN1CC(C)(C)c2cc(F)ccc21)NC(=O)[C@H](CC1CCCCC1)NC(=O)N1CCOCC1
3 | 42 | 1350 | 100 | 69 | 774 | 52 | 4.1 | C[C@@H](CN1CC(C)(C)c2cc(F)ccc21)NC(=O)O[C@@H](CC1CCCCC1)C(=O)N1CCOCC1
